Results published in the supplement of paper PMC10331698.
± gives the standard deviation of the averaged measurements.

Columns and labels:
Experiment in all cases: level (log10 ratio to DMSO vehicle control); higher = higher biomarker level / cell amount than vehicle control
[1] = compound: OCCCC(F)(F)C(F)(F)C(F)(F)C(F)(F)C(F)(F)C(F)(F)C(F)(F)C(F)(F)F [3-(Perfluorooctyl)propanol]; conditions: 6700 nM; in DMSO
Protocol: (§1)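 BioMAP Diversity Plus panel of 12 human primary cell co-culture systems (3C, 4H, LPS, SAg, BT, BF4T, BE3C, CASM3C, HDF3CGF, KF3CT, MyoF, Mphg). Compounds were added 1 h before stimulation and left for 24 h (MyoF 48 h; BT 72 h for soluble read-outs or 6 d for IgG). Biomarkers were read by ELISA, cytotoxicity by SRB, PBMC viability and proliferation by Alamar Blue. Each well value was divided by the mean of 8 DMSO control wells on the same plate and log10 transformed; duplicate blinded samples were tested at 4 concentrations.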

[2] = compound: O=P(O)(O)CCC(F)(F)C(F)(F)C(F)(F)C(F)(F)C(F)(F)C(F)(F)F [2-(Perfluorohexyl)ethylphosphonic acid]; conditions: in DMSO
Protocol: as §1

[3] = compound: O=C(O)C(F)(F)C(F)(F)C(F)(F)C(F)(F)C(F)(F)C(F)(F)C(F)(F)F [Ammonium perfluorooctanoate]; conditions: in DMSO
Protocol: as §1

Test System	level (log10) [1]	level (log10) ([2]; 6700 nM)	level (log10) ([2]; 20000 nM)	level (log10) ([2]; 60000 nM)	level (log10) ([3]; 6700 nM)	level (log10) ([3]; 20000 nM)	level (log10) ([3]; 60000 nM)
LPS:M-CSF	-0.073 ± 0.03	-0.0175 ± 0.074	0.0055 ± 0.043	0.0255 ± 0.019	0.0145 ± 0.023	0.005 ± 0.031	0.007 ± 0.018
BE3C:HLA-DR	-0.01 ± 0.023	-0.0045 ± 0.018	-0.012 ± 0.021	0.01 ± 0.038	-0.019 ± 0.0071	-0.0325 ± 0.012	-0.068 ± 0.017
4H:CCL26/Eotaxin-3	-0.009 ± 0.0042	-0.052 ± 0.09	-0.0765 ± 0.066	0 ± 0.018	-0.005 ± 0.0028	-0.013 ± 0.0057	-0.0385 ± 0.028
3C:CD87/uPAR	-0.03 ± 0.04	0.0365 ± 0.03	0.0125 ± 0.00071	-0.0385 ± 0.0092	-0.007 ± 0.0042	-0.0095 ± 0.013	-0.056 ± 0.011
LPS:CCL2/MCP-1	-0.0925 ± 0.13	-0.016	-0.0075 ± 0.005	-0.0105 ± 0.019	-0.0095 ± 0.0035	-0.001 ± 0.031	0.0105 ± 0.0092
BE3C:CXCL8/IL-8	-0.046 ± 0.011	-0.064 ± 0.017	-0.0635 ± 0.0064	-0.0555 ± 0.06	0.043 ± 0.021	0.0095 ± 0.039	-0.066 ± 0.04
LPS:sTNF-alpha	-0.335 ± 0.2	0.008 ± 0.0085	0.0105 ± 0.026	0.007 ± 0.0042	0.004 ± 0.0085	0.001 ± 0.0057	-0.0135 ± 0.00071
4H:CD87/uPAR	-0.0615 ± 0.025	-0.0345 ± 0.018	-0.0165 ± 0.015	-0.0495 ± 0.011	0.0015 ± 0.028	0.026 ± 0.0057	0.034 ± 0.023
SAg:CD69	-0.036 ± 0.014	-0.004 ± 0.025	-0.008 ± 0.02	0.009 ± 0.03	-0.0115 ± 0.00071	-0.026 ± 0.0014	-0.062 ± 0.0085
BF4T:CD106/VCAM-1	-0.014 ± 0.0099	-0.0195 ± 0.03	-0.0165 ± 0.016	0.0055 ± 0.047	-0.0315 ± 0.021	-0.0315 ± 0.0064	-0.032 ± 0.017
LPS:CD141/Thrombomodulin	0.092 ± 0.031	-0.004 ± 0.11	-0.0055 ± 0.11	0.0315 ± 0.032	0.0135 ± 0.025	0.0105 ± 0.013	-0.004 ± 0.016
BF4T:CCL2/MCP-1	-0.0265 ± 0.0092	0.001 ± 0.0028	0.0015 ± 0.023	-0.009 ± 0.0028	-0.0015 ± 0.013	0.0005 ± 0.036	-0.016 ± 0.069
SAg:CXCL9/MIG	-0.0205 ± 0.0078	0.0025 ± 0.0035	-0.012	0.0005 ± 0.022	-0.004	0.003 ± 0.013	0.009 ± 0.0085
BE3C:CXCL11/I-TAC	-0.003 ± 0.011	-0.0205 ± 0.0078	-0.0235 ± 0.0064	-0.0415 ± 0.032	0.0095 ± 0.018	0.0125 ± 0.019	-0.0295 ± 0.0035
SAg:CXCL8/IL-8	-0.0165 ± 0.028	-0.003 ± 0.038	0.015 ± 0.023	0.143 ± 0.0021	-0.0325 ± 0.026	0.007 ± 0.013	0.127 ± 0.16
4H:CD62P/P-selectin	-0.0465 ± 0.022	0.022 ± 0.0042	-0.01 ± 0.017	-0.0585 ± 0.021	0.0195 ± 0.012	0.043 ± 0.088	0.0515 ± 0.036
BE3C:IL-1alpha	0.0155 ± 0.03	-0.01 ± 0.0014	-0.0245 ± 0.005	-0.007 ± 0.023	-0.008 ± 0.024	-0.019 ± 0.021	-0.028 ± 0.011

Test System	level (log10) [1]	level (log10) ([2]; 6700 nM)	level (log10) ([2]; 20000 nM)	level (log10) ([2]; 60000 nM)	level (log10) ([3]; 6700 nM)	level (log10) ([3]; 20000 nM)	level (log10) ([3]; 60000 nM)
BE3C:CXCL9/MIG	-0.0045 ± 0.018	-0.008 ± 0.0057	-0.0075 ± 0.0021	0.003 ± 0.02	0.008 ± 0.011	-0.003 ± 0.0042	-0.003 ± 0.0028
3C:Proliferation	-0.385 ± 0.027	-0.066 ± 0.057	-0.035 ± 0.017	-0.101 ± 0.081	-0.001 ± 0.034	0.015 ± 0.0042	-0.0635 ± 0.08
BT:sIL-17A	0.023 ± 0.028	0.018 ± 0.11	-0.07 ± 0.017	-0.135 ± 0.059	-0.168 ± 0.2	-0.0675 ± 0.037	-0.282 ± 0.23
SAg:SRB	-0.009 ± 0.0071	-0.008 ± 0.011	0.0025 ± 0.013	-0.0355 ± 0.035	-0.013 ± 0.0042	-0.012 ± 0.0057	-0.034 ± 0.0042
BT:B cell Proliferation	-0.0025 ± 0.0064	0.031 ± 0.0071	0.0135 ± 0.00071	0.051 ± 0.021	0.0065 ± 0.047	0.0165 ± 0.012	0.0515 ± 0.026
BT:sIL-2	-0.0245 ± 0.016	0.076 ± 0.013	0.023 ± 0.0071	0.0355 ± 0.11	-0.046 ± 0.0057	-0.0075 ± 0.074	-0.006 ± 0.1
SAg:CCL2/MCP-1	-0.0025 ± 0.021	0.0075 ± 0.0092	-0.006 ± 0.016	0.041	-0.0035 ± 0.0035	-0.007 ± 0.011	0.01 ± 0.034
BT:PBMC Cytotoxicity	0.021 ± 0.028	0.0025 ± 0.053	0.0325 ± 0.021	0.07 ± 0.047	-0.0115 ± 0.047	-0.009 ± 0.033	0.0565 ± 0.015
SAg:Proliferation	-0.005 ± 0.023	0.0125 ± 0.0078	-0.0165 ± 0.019	-0.036 ± 0.03	0.002 ± 0.0085	0.0175 ± 0.029	0.044 ± 0.044
BF4T:CCL26/Eotaxin-3	-0.029 ± 0.017	-0.0135 ± 0.022	-0.04 ± 0.0099	-0.034 ± 0.079	0.004 ± 0.02	-0.044 ± 0.025	-0.086
LPS:CXCL8/IL-8	-0.132 ± 0.014	-0.023 ± 0.024	-0.0235 ± 0.0021	0.0375 ± 0.054	0.017 ± 0.0042	0.038 ± 0.013	0.047 ± 0.027
BF4T:SRB	-0.0075 ± 0.0021	-0.007 ± 0.0042	-0.011 ± 0.0014	-0.0055 ± 0.016	-0.0085 ± 0.005	-0.002 ± 0.0042	0.0005 ± 0.016
3C:SRB	-0.0195 ± 0.018	0.0015 ± 0.032	0.0085 ± 0.015	-0.006 ± 0.028	-0.0015 ± 0.012	-0.014 ± 0.0042	-0.05 ± 0.0099
LPS:CD69	-0.011 ± 0.016	-0.026 ± 0.075	0.001 ± 0.051	0.0815 ± 0.029	-0.0165 ± 0.012	-0.045 ± 0.0085	-0.142 ± 0.031
3C:CXCL8/IL-8	-0.008 ± 0.013	-0.0115 ± 0.05	-0.0035 ± 0.0021	0.0545 ± 0.03	0.0015 ± 0.0021	0.023 ± 0.027	0.085 ± 0.065
BF4T:MMP-9	0.0155 ± 0.057	-0.0155 ± 0.00071	-0.0015 ± 0.0078	0.018 ± 0.035	0.017 ± 0.023	0.028 ± 0.0057	0.0375 ± 0.025
BE3C:CXCL10/IP-10	-0.009 ± 0.0099	-0.056 ± 0.058	-0.057 ± 0.067	-0.0455 ± 0.09	0.0065 ± 0.015	-0.0135 ± 0.00071	-0.163 ± 0.061
